Data taken from PubChem BioAssay AID1645861 (Buhrlage Lab, Dana-Farber Cancer Institute and Novartis …, 2021).
The source made the active and inactive calls.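 The calls were made as follows: active = compounds whose peak USP7 inhibition across the dose series reached 30% or more; inactive = the rest.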

Target: Ubiquitin carboxyl-terminal hydrolase 7 (Homo sapiens) (UniProt Q93009)
Test: Ubiquitin-specific protease 7 DUB inhibitors, concentration-effect, biochemical, validation of primary hits (AID 1645861)
Settings: purified USP7, Ub-rhodamine cleavage fluorescence, 60 min

Chain of Ubiquitin carboxyl-terminal hydrolase 7 (Homo sapiens) (Q93009 whole entry, looked up): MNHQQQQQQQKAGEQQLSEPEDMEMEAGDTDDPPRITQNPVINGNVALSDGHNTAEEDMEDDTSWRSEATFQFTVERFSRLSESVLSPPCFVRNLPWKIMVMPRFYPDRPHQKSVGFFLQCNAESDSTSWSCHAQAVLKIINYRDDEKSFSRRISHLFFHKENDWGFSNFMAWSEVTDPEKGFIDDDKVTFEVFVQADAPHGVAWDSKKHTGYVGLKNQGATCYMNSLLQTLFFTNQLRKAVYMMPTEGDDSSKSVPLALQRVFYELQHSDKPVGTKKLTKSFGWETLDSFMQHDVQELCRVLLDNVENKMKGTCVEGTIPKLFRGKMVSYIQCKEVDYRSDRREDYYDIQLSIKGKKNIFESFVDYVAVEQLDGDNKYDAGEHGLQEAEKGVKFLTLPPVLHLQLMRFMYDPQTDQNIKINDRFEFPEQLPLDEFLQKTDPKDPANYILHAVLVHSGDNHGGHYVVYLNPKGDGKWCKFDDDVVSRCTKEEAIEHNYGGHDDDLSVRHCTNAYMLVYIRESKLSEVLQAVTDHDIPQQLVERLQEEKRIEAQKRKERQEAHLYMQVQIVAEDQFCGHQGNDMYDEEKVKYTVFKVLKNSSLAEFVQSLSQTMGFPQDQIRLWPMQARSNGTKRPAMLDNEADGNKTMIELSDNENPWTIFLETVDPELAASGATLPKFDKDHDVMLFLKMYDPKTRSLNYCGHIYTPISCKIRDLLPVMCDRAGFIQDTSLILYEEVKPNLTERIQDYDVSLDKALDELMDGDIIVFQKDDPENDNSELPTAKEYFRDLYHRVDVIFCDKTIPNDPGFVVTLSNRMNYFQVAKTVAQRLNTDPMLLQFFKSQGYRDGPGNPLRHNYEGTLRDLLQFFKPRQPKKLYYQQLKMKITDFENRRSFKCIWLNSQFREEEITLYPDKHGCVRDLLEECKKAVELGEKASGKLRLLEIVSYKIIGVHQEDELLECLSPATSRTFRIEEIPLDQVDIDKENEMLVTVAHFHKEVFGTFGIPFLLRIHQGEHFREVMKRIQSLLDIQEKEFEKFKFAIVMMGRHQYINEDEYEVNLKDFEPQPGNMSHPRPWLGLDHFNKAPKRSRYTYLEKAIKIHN

Molecule `CC[C@@H](C(=O)[C@@H](C)[C@@H](O)[C@H](C)CCc1ccc(C)c(O)c1C(=O)O)[C@@H]1O[C@](CC)([C@H]2CC[C@](O)(CC)[C@H](C)O2)C[C@@H]1C` has an IC50 of 28.6 µM.
Work on `O=S(=O)(Nc1ccc(Oc2ncnc3cc(Cl)ccc23)nc1)c1ccc(S(=O)(=O)c2ccccc2)s1` yielded an IC50 of 49.6 µM.
With `O=C(Nc1cccc(F)c1)Nc1cccc(-c2nnc(-c3ccccc3)o2)c1` the IC50 was > 50 µM (inactive).
For `CCC(=O)Nc1cccnc1-c1ccc(C(=O)Nc2ccc3c(c2)OCO3)cc1`, the IC50 was > 50 µM (inactive).
For `Cc1ccc(Cl)cc1NC(=O)Cn1c(=O)n(CCC(=O)NCc2ccco2)c(=O)c2ccccc21`, the IC50 was > 50 µM (inactive).
In the case of `O=c1[nH]c(C2CCN(S(=O)(=O)c3ccc(S(=O)(=O)NC4CCCCC4)cc3)CC2)nc2c1nnn2Cc1ccc(F)cc1`, the IC50 is reported as > 50 µM (inactive).
In the case of `CCOc1cccc(-c2noc(-c3nn(-c4ccccc4)ccc3=O)n2)c1`, the IC50 is reported as > 50 µM (inactive).
With `Cc1nc(N2CCCC2)ncc1-c1cc(=O)[nH]c(Nc2ccc(Cl)cc2Cl)n1` the IC50 was > 50 µM (inactive).
With `O=C1c2c(O)c(Cl)cc3c2[C@@]2(Oc4ccc(O)c5c4[C@]3(O2)[C@@H]2O[C@@H]2C5=O)[C@@H]2O[C@H]12` the IC50 was 16.3 µM.
With `CCc1noc(-c2ccn3c(CC(=O)Nc4ccccc4C)nnc3c2)n1` the IC50 was > 50 µM (inactive).
For `Cc1cccc(NC(=O)Nc2nnc(CC(=O)NCc3ccccc3)s2)c1`, the IC50 was > 50 µM (inactive).
`COc1ccccc1-c1nc(-c2cn(-c3ccc(F)cc3)nn2)no1` showed an IC50 of 43.9 µM.
With `COc1ccc(-c2nc(SCC(=O)Oc3c(C)cccc3C)n3[nH]c(=O)cc3n2)cc1` the IC50 was > 50 µM (inactive).
For `CCc1nc(SCC(=O)Nc2cc(Cl)ccc2C)c2oc3ccccc3c2n1`, the IC50 was > 50 µM (inactive).
With `O=c1[nH]c(C2CCN(S(=O)(=O)c3ccc(S(=O)(=O)NC4CCCC4)cc3)CC2)nc2c1nnn2Cc1cccc(Cl)c1` the IC50 was > 50 µM (inactive).
For `COc1ccc(CCC(=O)Nc2nnc(C3CC(=O)N(c4ccc(C)cc4)C3)s2)cc1` (stereo not drawn), the IC50 was > 50 µM (inactive).
With `CCOc1ccc(NC(=O)Cn2c(=O)n(CCCCCC(=O)NCc3ccc(F)cc3)c(=O)c3sccc32)cc1` the IC50 was > 50 µM (inactive).
For `COc1cc2c(cc1OC)-c1cc(Nc3ccc(Br)cc3)nc(=O)n1CC2`, the IC50 was > 50 µM (inactive).
In the case of `Cc1ccc(CNC(=O)CCCn2c(=O)c3sccc3n(CC(=O)OCc3ccccc3)c2=O)cc1`, the IC50 is reported as > 50 µM (inactive).
For `CCOc1ccc(-n2c(SCC(=O)Nc3ccc(C)cc3)nnc2-c2c[nH]c3ccccc23)cc1`, the IC50 was > 50 µM (inactive).
Molecule `CCOC(=O)c1ccc(Oc2sccc2[N+](=O)[O-])cc1` has an IC50 of 10.7 µM.
`COc1cccc(CNC(=O)c2nnn(CC(=O)Nc3cc(C)ccc3C)c2N)c1` was tested, and the IC50 was > 50 µM (inactive).
`Cc1ccc2[nH]c(=O)c(-c3nc4ccc(C)cn4c3NCc3ccc(F)cc3)cc2c1` gave an IC50 of 24.6 µM.
With `Nc1c(C(=O)NCc2ccc3c(c2)OCO3)nnn1Cc1ccc(Br)cc1F` the IC50 was > 50 µM (inactive).
With `COc1cccc(NC(=O)Cn2cc(C(=O)c3ccc(C)cc3)c(=O)c3cc(Cl)ccc32)c1` the IC50 was > 50 µM (inactive).
With `Cc1cc(C(=O)NC2(O)C(=O)c3ccccc3C2=O)n(C)n1` the IC50 was > 50 µM (inactive).
`O=C(Cn1c(=O)n(Cc2ccc3c(c2)OCO3)c(=O)c2ccccc21)NCc1ccco1` was tested, and the IC50 was > 50 µM (inactive).
With `CC(=O)[C@H]1c2c(c(O)c3c(O)cccc3c2-c2c3c(c(O)c4c(O)cccc24)C(=O)C[C@](C)(O)[C@H]3C(C)=O)C(=O)C[C@]1(C)O` the IC50 was > 50 µM (inactive).
`O=c1c2[nH]c3ccccc3c2ncn1Cc1ccncc1` was tested, and the IC50 was > 50 µM (inactive).
`O=C(COc1ccccc1)Nc1ccc(-c2nc3cnccc3o2)c(O)c1` was tested, and the IC50 was > 50 µM (inactive).
In the case of `COc1cc(Cl)c(C)cc1NC(=O)Cn1c(=O)n(CC(=O)NCc2ccco2)c(=O)c2ccccc21`, the IC50 is reported as > 50 µM (inactive).
With `O=C(CCn1c(=O)c2ccccc2n(CC(=O)OCc2ccccc2)c1=O)NCc1ccc2c(c1)OCO2` the IC50 was > 50 µM (inactive).
In the case of `CN(C)[C@@H]1C(=O)C(C(N)=O)=C(O)[C@@]2(O)C(=O)C3=C(O)c4c(O)cccc4[C@@](C)(O)C3[C@H](O)[C@@H]12` (stereo partly drawn), the IC50 is reported as 6.37 µM.
`COc1cc(NC(=O)Cn2c(=O)n(-c3ccc(CC(=O)NCc4ccco4)cc3)c(=O)c3ccccc32)cc(OC)c1` was tested, and the IC50 was > 50 µM (inactive).
`Cc1nc(SCC(=O)NC(C)c2ccccc2)c2oc3ccccc3c2n1` (stereo not drawn) was tested, and the IC50 was > 50 µM (inactive).
In the case of `NC(=O)c1ccccc1NC(=O)COc1ccc2c(c1)oc(=O)c1ccccc12`, the IC50 is reported as > 50 µM (inactive).
In the case of `N#Cc1cccc(NC(=O)Nc2cccn(Cc3ccccc3F)c2=O)c1`, the IC50 is reported as > 50 µM (inactive).
For `Nc1c(-c2nc(-c3ccccc3Cl)no2)nnn1-c1ccc(Cl)cc1`, the IC50 was > 50 µM (inactive).
`Cc1ccnc(Nc2nc(-c3ccccc3)c3cc(Cl)ccc3n2)n1` was tested, and the IC50 was 38.5 µM.
`CC(C)=CCCC1(C)C=Cc2c(O)c3c(c(CC=C(C)C)c2O1)OC12C(=CC4CC1C(C)(C)OC2(C/C=C(/C)C(=O)O)C4=O)C3=O` (stereo not drawn) showed an IC50 of 17.4 µM.
With `COc1ccc(-c2nc(Cn3nnc(C(=O)Nc4ccc(C)c(C)c4)c3N)c(C)o2)cc1` the IC50 was > 50 µM (inactive).
In the case of `O=C(NC1(O)C(=O)c2ccccc2C1=O)c1ccc(-c2csnn2)cc1`, the IC50 is reported as > 50 µM (inactive).
In the case of `Cc1cccc(Cl)c1NC(=O)Nc1ccc(NC(=O)c2ccccc2O)cc1`, the IC50 is reported as > 50 µM (inactive).
